According to patent US20110178179A1, “1-AMINO-ALKYLCYCLOHEXANE DERIVATIVES FOR THE TREATMENT OF COGNITIVE IMPAIRMENT IN TINNITUS” (MERZ PHARMA GmbH & CO. KGaA, priority 2008, published 2011):

Tests used:
[1] = target: α9/α10 nicotinic receptor (Rattus norvegicus, UniProt P43144+Q9JLB5); conditions: Plazas, et al., Eur J. Pharmacol., 2007; cited from earlier work
[2] = test system: subjects with subjective tinnitus of at least moderate severity; experiment: Double-blind placebo-controlled pilot trial of neramexane in tinnitus: THF-12 (TBF-12) questionnaire; type: in vivo, human; conditions: for TBF-12 functional-communicational score, Actual Mean ± SD / TBF-12 functional-communicational score, Neramexane - Placebo LSMean Diff. ± SE / TBF-12 functional-communicational score, Change Mean ± SD / TBF-12 functional-communicational score, Change LSMean: ITT-LOCF; for TBF-12 functional-communicational score, Change Mean ± SD / TBF-12 functional-communicational score, Change LSMean: baseline to Week 16; for TBF-12 functional-communicational score, Change LSMean: ANCOVA
Description: The objective of this pilot project was to conduct a clinical trial to assess the efficacy of neramexane as a treatment for tinnitus. The primary objective of this study was to compare the efficacy, tolerability and safety of neramexane mesylate at three different dosages (25, 50 or 75 mg/d) with placebo in subjects with subjective tinnitus of at least moderate severity.
(§1) In a double-blind, multicenter, randomized, placebo-controlled, parallel-group study, the efficacy of neramexane in subjects suffering from tinnitus of at least moderate severity was assessed. Approximately 100 patients, who fulfilled particular inclusion criteria and met none of particular exclusion criteria, were randomized to each of four double-blind treatment groups (neramexane mesylate 25, 50, 75 mg/d or placebo), resulting in approximately 400 patients in total.
(§2) The double-blind, 16-week treatment period consisted of a 4-week uptitration period and a 12-week fixed-dose treatment period at maintenance b.i.d. dosing. In case of poor tolerability, however, the investigator could consider a dose reduction by 25 mg/d (or placebo, respectively). After the treatment phase, there was a 4-week follow-up period with no active treatment and concomitant therapy restrictions. In total, this study involved seven study visits: screening, baseline, and at the end of weeks 4, 8, 12, 16, and 20.
Visit 1 (screening): After signing the consent form, the subject underwent a physical examination and clinical laboratory testing. Patient eligibility for the study was evaluated via a check of inclusion/exclusion criteria. An initial Tinnitus Interview was conducted. The subject also completed a Tinnitus-Beeinträchtigungs-Fragebogen (THF-12) (i.e., a 12-item German modified and validated version (Greimel K V et al., Tinnitus-Beeinträchtigungs-Fragebogen (THF-12). Manual. Frankfurt am Main: Swets & Zeitlinger B. V.; 2000) of the 25-item Tinnitus Handicap Inventory or THI (Newman C W, et al. Development of the Tinnitus Handicap Inven-tory. Arch Otolaryngol Head Neck Surg 1996; 122(2): 143-148; Newman C W, et al. Psychometric adequacy of the Tinnitus Handicap Inventory (THI) for evaluating treatment outcome. J Am Acad Audiol 1998; 9(2): 153-160.)), a Hospital Anxiety and Depression Scale—Depression Subscale (HADS-D) Questionnaire and a Hyperacusis (Geräuschüberempfindlichkeit-Fragenbogen (GÜF)) Questionnaire (if applicable).
(§3) Study medication was dispensed at Visit 2 (baseline, day 0). Each patient received one blister box containing 5 blister cards (including one reserve blister) of double-blind study medication (i.e., […]). Subjects were instructed to take 2 tablets twice daily (4 tablets/d), beginning the day after dispensing of the study medication, until they returned for their next study visit (Visit 3). For those subjects assigned to receive active medication, some placebo tablets were incorporated into the dosing regimen to ensure blinding during the uptitration period. The target fixed-maintenance dose of 25, 50, or 75 mg neramexane mesylate/d was administered starting with the fifth week of double-blind treatment and was continued throughout the study. At each of the subsequent visits (Visits 3, 4, and 5, corresponding to end of week 4, 8 and 12) patients received another blister box containing 5 blister cards for the 4 week intervals, with double-blind medication for the intervening treatment period until the next study visit.
Primary Outcome • The change in THF-12 total score from baseline (Visit 2) to the endpoint visit (Visit 6, i.e. Week 16) was the primary efficacy endpoint in this study. […]

[3] = test system: subjects with subjective tinnitus of at least moderate severity; experiment: Double-blind placebo-controlled pilot trial of neramexane in tinnitus: structured tinnitus interview, question 12/5 (concentration); type: in vivo, human; conditions: for Concentration: Affected (%) / Concentration: Affected n / Concentration: No effect (%) / Concentration: No effect n / Concentration: Prevented (%) / Concentration: Prevented n: ITT-LOCF
Description: as §1, §2, §3
Secondary Outcomes • THF-12 total score (values and absolute change from baseline) at all post-baseline visits except the endpoint visit. • Change in the THF-12 total score from Week 16 to Week 20 (values and absolute changes). • THF-12 factorial scores (values and absolute change from baseline, including the change from Week 16 to Week 20) at all post-baseline visits. • Hyperacusis questionnaire GÜF (“Geräuschüberempfindlichkeits-Fragebogen”), values and absolute change from baseline, including the change from Week 16 to Week 20, total and factorial scores at all post-baseline visits if hyperacusis was present. • Clinical global impression of change: item 27 of the tinnitus follow-up interview was summarized after dichotomization of the responses in any improvement (values 1, 2, 3) versus no improvement (values 4, 5, 6, 7) and in marked improvement (values 1, 2) versus no marked improvement (values 3, 4, 5, 6, 7). • Total score of HADS-D as well as the depression and anxiety subscale scores (values and absolute change from baseline, also the change from week 16 to week 20) at all post-baseline visits. • Values of tinnitus interview (initial and follow-up) at all post-baseline visits; absolute change from baseline and change from Week 16 to Week 20 for items 8, 9, 10, 19, 20, 21, 24, 25 and 26 of the follow-up interview.
All efficacy analyses were performed on the ITT population using the last-observation-carried-forward (LOCF) approach. For sensitivity purposes an analysis of the per-protocol set and of observed cases was performed additionally. All statistical tests used for testing the primary efficacy (confirmatory testing) and secondary efficacy criteria (exploratory), and all other statistical tests used for exploratory analyses were two-sided hypothesis tests performed at the 5% significance level. For all variables standard descriptive statistics were calculated.

[4] = Baseline, 25 mg/d group, N = 106
[5] = Baseline, 50 mg/d group, N = 106
[6] = Baseline, 75 mg/d group, N = 99
[7] = Week 16 or end of treatment, 25 mg/d, N = 101
[8] = Week 16 or end of treatment, 50 mg/d, N = 103
[9] = Week 16 or end of treatment, 75 mg/d, N = 93
[10] = final daily doses of 50 or 75 mg, 16 weeks, distinct from placebo or low-dose (25 mg)

Sequence of α9/α10 nicotinic receptor (P43144 26-479): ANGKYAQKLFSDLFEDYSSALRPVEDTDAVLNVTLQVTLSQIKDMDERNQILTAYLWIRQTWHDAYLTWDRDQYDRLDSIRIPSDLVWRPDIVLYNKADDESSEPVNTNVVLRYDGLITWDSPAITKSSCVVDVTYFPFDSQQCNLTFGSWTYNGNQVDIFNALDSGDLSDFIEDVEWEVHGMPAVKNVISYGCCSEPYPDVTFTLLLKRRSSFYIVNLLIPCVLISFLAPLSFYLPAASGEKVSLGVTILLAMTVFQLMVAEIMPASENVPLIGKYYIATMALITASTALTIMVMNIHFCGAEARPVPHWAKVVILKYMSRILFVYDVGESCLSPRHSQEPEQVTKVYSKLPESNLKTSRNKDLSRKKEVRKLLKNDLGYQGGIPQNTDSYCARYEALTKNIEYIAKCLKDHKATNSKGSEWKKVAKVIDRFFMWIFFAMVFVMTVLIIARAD
Sequence of α9/α10 nicotinic receptor (Q9JLB5 25-447): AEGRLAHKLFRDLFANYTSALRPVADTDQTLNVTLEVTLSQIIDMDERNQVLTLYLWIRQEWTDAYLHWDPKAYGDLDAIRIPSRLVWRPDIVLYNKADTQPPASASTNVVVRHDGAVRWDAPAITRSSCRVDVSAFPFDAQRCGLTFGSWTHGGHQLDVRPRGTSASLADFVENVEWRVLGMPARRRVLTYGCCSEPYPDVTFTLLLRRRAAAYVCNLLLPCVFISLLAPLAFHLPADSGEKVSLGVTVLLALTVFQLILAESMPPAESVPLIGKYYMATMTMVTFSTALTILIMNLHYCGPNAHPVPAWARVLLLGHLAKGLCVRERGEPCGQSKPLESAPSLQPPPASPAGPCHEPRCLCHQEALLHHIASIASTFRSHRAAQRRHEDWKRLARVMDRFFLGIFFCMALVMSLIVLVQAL

CC1(C)CC(C)(C)CC(C)(N)C1 [Neramexane, 1-amino-1,3,3,5,5-pentamethylcyclohexane]
activity at α9/α10 nicotinic receptor [1]: α9/α10 nicotinic receptor antagonist
TBF-12 functional-communicational score, Actual Mean ± SD ([2]; Baseline, 25 mg/d group, n=106): 5.0 ± 2.1
TBF-12 functional-communicational score, Actual Mean ± SD ([2]; Baseline, 50 mg/d group, n=106): 5.2 ± 1.9
TBF-12 functional-communicational score, Actual Mean ± SD ([2]; Baseline, 75 mg/d group, n=99): 5.1 ± 2.2
TBF-12 functional-communicational score, Neramexane - Placebo LSMean Diff. ± SE ([2]; Week 16, 25 mg/d vs placebo): 0.0 ± 0.2
TBF-12 functional-communicational score, Actual Mean ± SD ([2]; Week 16, 25 mg/d, n=106): 4.3 ± 2.5
TBF-12 functional-communicational score, Neramexane - Placebo LSMean Diff. ± SE ([2]; Week 16, 50 mg/d vs placebo): −0.5 ± 0.2
TBF-12 functional-communicational score, Actual Mean ± SD ([2]; Week 16, 50 mg/d, n=106): 3.9 ± 2.2
TBF-12 functional-communicational score, Neramexane - Placebo LSMean Diff. ± SE ([2]; Week 16, 75 mg/d vs placebo): −0.4 ± 0.2
TBF-12 functional-communicational score, Actual Mean ± SD ([2]; Week 16, 75 mg/d, n=99): 4.0 ± 2.5
TBF-12 functional-communicational score, Change Mean ± SD ([2]; 25 mg/d): −0.7 ± 1.5
TBF-12 functional-communicational score, Change LSMean ([2]; 25 mg/d): −0.7
TBF-12 functional-communicational score, Change Mean ± SD ([2]; 50 mg/d): −1.2 ± 2.0
TBF-12 functional-communicational score, Change LSMean ([2]; 50 mg/d): −1.2
TBF-12 functional-communicational score, Change Mean ± SD ([2]; 75 mg/d): −1.1 ± 1.8
TBF-12 functional-communicational score, Change LSMean ([2]; 75 mg/d): −1.0
effect on cognitive function in patients with tinnitus (conclusion of Example 1) ([2]; patients with tinnitus): capability to improve cognitive function
Concentration: Affected (%) [3, 4]: (82.1) %
Concentration: Affected n [3, 4]: 87
Concentration: No effect (%) [3, 4]: (12.3) %
Concentration: No effect n [3, 4]: 13
Concentration: Prevented (%) [3, 4]: (5.7) %
Concentration: Prevented n [3, 4]: 6
Concentration: Affected (%) [3, 5]: (84.0) %
Concentration: Affected n [3, 5]: 89
Concentration: No effect (%) [3, 5]: (9.4) %
Concentration: No effect n [3, 5]: 10
Concentration: Prevented (%) [3, 5]: (6.6) %
Concentration: Prevented n [3, 5]: 7
Concentration: Affected (%) [3, 6]: (73.7) %
Concentration: Affected n [3, 6]: 73
Concentration: No effect (%) [3, 6]: (19.2) %
Concentration: No effect n [3, 6]: 19
Concentration: Prevented (%) [3, 6]: (7.1) %
Concentration: Prevented n [3, 6]: 7
Concentration: Affected (%) [3, 7]: (81.2) %
Concentration: Affected n [3, 7]: 82
Concentration: No effect (%) [3, 7]: (17.8) %
Concentration: No effect n [3, 7]: 18
Concentration: Prevented (%) [3, 7]: (1.0) %
Concentration: Prevented n [3, 7]: 1
Concentration: Affected (%) [3, 8]: (73.8) %
Concentration: Affected n [3, 8]: 76
Concentration: No effect (%) [3, 8]: (24.3) %
Concentration: No effect n [3, 8]: 25
Concentration: Prevented (%) [3, 8]: (1.9) %
Concentration: Prevented n [3, 8]: 2
Concentration: Affected (%) [3, 9]: (73.1) %
Concentration: Affected n [3, 9]: 68
Concentration: No effect (%) [3, 9]: (23.7) %
Concentration: No effect n [3, 9]: 22
Concentration: Prevented (%) [3, 9]: (3.2) %
Concentration: Prevented n [3, 9]: 3

CC1(C)CC(C)(C)CC(C)(N)C1.CS(=O)(=O)O [neramexane mesylate]
improvement of tinnitus as measured by the THF-12 ([2]; final daily doses of 50 or 75 mg, 16-week double-blind treatment, distinct from placebo or low-dose (25 mg)): clear improvement of their tinnitus
improvement of cognition, item one (concentration) and item two (focused attention) of the functional-communicational subscore of the THF-12 [2, 10]: clear improvement of their cognition
improvement of concentration, question 12/5 of the structured tinnitus interview [3, 10]: clear improvement of their concentration
